From ChEMBL document CHEMBL1201862, “PubChem BioAssay data set” (2004)
The source made the active and inactive calls.

Legend:
[1] = biological target: T1, Mitochondrial peptide methionine sulfoxide reductase (Bos taurus, UniProt P54149); experiment: Absorbance-based biochemical high throughput dose response assay for activators of Methionine sulfoxide reductase A (MsrA).; format: functional
T1 sequence (P54149 whole entry): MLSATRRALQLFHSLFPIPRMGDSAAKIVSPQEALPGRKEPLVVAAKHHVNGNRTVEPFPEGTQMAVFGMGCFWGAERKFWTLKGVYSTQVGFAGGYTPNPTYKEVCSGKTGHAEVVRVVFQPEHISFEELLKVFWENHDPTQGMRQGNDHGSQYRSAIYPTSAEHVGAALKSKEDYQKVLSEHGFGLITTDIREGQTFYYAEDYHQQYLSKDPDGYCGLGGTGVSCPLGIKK

[2] = biological target: T2, Caspase-6 (Homo sapiens, UniProt P55212); experiment: inhibition of CASP6 peptide cleavage – biochemical, VEID-R110 fluorescence, cherry-pick, dose response (AID 720632)
T2 sequence (P55212 whole entry): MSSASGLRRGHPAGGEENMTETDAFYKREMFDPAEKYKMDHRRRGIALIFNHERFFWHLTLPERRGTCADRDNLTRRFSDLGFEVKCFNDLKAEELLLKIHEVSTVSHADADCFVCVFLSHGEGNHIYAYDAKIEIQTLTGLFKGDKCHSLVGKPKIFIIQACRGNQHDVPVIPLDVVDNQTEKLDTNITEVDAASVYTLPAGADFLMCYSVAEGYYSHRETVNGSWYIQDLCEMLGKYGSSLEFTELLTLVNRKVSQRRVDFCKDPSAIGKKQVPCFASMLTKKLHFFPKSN

[3] = biological target: Caspase-8 (Homo sapiens, UniProt Q14790); experiment: inhibitors of purified CASP8 protease – biochemical, Z-IETD-R110 fluorescence, cherry-picked samples, selectivity assay for caspase-6 inhibitor project, dose response (AID 743294)
Sequence of Caspase-8 (Q14790 217-374 limits assumed): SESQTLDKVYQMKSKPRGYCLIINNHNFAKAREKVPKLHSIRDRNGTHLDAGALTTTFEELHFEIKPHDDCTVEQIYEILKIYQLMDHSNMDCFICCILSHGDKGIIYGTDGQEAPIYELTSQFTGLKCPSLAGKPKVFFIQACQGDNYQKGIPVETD
Sequence of Caspase-8 (Q14790 385-479 limits assumed): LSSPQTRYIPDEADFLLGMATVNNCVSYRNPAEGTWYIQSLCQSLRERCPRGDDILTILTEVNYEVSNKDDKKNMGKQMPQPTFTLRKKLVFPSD

[4] = biological target: T3, Sentrin-specific protease 8 (Homo sapiens, UniProt Q96LD8); format: functional;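 also: luminescence read-out of SENP8 inhibition, dose-response confirmation following an ultra-high-throughput screen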
T3 sequence (Q96LD8 whole entry): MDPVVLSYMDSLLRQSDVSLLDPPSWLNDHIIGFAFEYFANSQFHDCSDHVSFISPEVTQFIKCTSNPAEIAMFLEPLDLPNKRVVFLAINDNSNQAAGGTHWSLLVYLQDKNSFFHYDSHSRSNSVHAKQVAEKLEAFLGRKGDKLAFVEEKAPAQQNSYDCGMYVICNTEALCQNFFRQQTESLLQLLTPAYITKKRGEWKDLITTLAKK

[5] = biological target: Tyrosyl-DNA phosphodiesterase 2 (Homo sapiens, UniProt O95551); experiment: potency against TDP2 phosphodiesterase activity – biochemical, epi absorbance, IC50, dose response (AID 743297)
Sequence of Tyrosyl-DNA phosphodiesterase 2 (O95551 whole entry): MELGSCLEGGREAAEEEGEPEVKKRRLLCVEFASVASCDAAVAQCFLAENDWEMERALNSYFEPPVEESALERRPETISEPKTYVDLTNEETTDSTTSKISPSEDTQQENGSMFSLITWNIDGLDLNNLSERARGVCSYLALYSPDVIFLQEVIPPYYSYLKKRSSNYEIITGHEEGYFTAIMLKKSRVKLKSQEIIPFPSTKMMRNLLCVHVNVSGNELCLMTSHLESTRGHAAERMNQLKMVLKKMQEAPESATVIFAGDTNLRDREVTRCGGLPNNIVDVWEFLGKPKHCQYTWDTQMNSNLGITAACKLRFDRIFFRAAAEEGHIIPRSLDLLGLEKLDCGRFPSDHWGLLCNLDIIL

[6] = biological target: T4, Caspase-3 (Homo sapiens, UniProt P42574); format: functional;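 also: Dose-response selectivity test against caspase-3 for candidate inhibitors of sentrin-specific proteases (SENPs)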
T4 sequence (P42574 whole entry): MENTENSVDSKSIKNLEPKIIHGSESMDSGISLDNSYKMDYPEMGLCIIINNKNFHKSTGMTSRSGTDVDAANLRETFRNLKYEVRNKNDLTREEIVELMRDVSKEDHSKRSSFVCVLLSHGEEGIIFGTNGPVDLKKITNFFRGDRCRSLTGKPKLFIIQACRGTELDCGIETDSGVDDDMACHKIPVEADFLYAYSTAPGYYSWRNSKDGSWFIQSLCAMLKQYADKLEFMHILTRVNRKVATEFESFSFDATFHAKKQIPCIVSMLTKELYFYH

[7] = biological target: Caspase-9 (Homo sapiens, UniProt P55211); experiment: inhibitors of purified CASP9 protease – biochemical, fluorescence, plate reader, cherry-picked samples, selectivity assay for caspase-6 inhibitor project, dose response (AID 743293)
Sequence of Caspase-9 (P55211 1-315 limits assumed): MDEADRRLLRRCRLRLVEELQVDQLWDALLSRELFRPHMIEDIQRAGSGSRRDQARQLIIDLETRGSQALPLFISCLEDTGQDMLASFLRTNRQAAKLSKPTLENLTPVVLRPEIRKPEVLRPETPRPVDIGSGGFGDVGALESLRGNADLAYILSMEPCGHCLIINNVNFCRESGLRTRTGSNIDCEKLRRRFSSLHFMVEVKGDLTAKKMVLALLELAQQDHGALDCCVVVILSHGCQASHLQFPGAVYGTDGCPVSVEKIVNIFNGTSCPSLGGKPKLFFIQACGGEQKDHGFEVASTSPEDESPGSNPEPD
Sequence of Caspase-9 (P55211 331-416 limits assumed): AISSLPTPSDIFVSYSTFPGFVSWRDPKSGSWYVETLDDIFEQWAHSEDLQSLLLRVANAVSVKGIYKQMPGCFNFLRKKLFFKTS

[8] = biological target: T5, Sentrin-specific protease 7 (Homo sapiens, UniProt Q9BQF6); format: functional;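 also: Luminescence-based dose-response confirmation of ultra-high-throughput screening hits, measuring inhibition of SENP7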
T5 sequence (Q9BQF6 whole entry): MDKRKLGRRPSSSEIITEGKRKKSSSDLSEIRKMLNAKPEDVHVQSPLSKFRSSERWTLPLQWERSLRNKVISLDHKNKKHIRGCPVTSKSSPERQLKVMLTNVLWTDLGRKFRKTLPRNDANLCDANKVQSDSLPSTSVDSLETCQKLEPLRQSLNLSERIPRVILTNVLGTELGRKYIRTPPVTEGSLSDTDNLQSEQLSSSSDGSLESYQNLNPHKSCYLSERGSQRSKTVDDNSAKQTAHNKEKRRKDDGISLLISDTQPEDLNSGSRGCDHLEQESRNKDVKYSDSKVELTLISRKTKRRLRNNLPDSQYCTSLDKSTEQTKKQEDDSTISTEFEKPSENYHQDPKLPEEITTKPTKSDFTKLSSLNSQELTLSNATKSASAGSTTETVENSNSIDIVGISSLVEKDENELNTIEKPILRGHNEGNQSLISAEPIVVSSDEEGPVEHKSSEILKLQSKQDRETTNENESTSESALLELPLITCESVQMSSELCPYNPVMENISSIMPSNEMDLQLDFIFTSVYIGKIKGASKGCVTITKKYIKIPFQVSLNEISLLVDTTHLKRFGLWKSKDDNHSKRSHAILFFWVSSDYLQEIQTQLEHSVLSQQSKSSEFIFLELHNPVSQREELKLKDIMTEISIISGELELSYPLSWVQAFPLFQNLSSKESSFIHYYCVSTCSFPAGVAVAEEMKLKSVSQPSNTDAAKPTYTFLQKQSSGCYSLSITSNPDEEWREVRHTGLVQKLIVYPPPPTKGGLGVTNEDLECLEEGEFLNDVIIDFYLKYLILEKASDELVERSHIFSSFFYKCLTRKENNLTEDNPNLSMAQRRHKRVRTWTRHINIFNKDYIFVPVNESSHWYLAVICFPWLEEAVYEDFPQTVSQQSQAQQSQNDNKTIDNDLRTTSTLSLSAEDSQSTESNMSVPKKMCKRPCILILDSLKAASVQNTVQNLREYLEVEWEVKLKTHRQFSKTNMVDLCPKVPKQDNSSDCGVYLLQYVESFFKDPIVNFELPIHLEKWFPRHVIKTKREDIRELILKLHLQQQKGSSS

[9] = biological target: T6, Sentrin-specific protease 6 (Homo sapiens, UniProt Q9GZR1); format: functional;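 also: Luminescence-based dose-response confirmatory assay of SENP6 inhibition, following up an ultra-high-throughput screen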
T6 sequence (Q9GZR1 whole entry): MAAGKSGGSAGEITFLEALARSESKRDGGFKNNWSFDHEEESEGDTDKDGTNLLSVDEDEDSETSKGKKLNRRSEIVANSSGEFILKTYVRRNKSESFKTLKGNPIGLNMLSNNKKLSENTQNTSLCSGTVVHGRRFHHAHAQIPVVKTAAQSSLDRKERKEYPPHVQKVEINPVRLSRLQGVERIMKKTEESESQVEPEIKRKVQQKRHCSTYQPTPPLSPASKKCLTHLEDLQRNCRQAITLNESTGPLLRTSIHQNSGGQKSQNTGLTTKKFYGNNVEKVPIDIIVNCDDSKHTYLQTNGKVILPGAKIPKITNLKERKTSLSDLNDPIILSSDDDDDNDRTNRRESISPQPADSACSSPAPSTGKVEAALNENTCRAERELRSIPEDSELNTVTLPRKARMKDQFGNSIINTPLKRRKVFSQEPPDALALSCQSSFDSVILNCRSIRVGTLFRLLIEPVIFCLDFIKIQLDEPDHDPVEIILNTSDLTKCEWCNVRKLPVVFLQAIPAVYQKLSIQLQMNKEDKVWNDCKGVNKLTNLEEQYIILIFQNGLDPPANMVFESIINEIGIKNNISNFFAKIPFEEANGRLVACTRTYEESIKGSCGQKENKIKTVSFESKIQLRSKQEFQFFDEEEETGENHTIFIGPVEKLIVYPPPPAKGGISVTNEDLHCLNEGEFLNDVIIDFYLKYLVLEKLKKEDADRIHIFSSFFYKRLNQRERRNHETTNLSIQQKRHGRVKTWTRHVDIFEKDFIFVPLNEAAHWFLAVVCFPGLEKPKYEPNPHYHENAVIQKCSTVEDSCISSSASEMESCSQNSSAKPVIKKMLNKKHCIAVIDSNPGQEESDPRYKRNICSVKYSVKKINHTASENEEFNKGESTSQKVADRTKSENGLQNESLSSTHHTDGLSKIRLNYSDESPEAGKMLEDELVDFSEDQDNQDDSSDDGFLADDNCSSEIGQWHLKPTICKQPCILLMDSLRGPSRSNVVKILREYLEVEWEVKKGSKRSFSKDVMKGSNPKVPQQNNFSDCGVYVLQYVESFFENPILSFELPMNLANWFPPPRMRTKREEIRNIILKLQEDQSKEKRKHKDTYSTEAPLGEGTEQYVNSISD

[10] = biological target: Metabotropic glutamate receptor 7 (Homo sapiens, UniProt Q14831); experiment: potentiation of glutamate EC20 at mGlu7 – cell-based, calcium mobilization, Galpha15, dose response (AID 743384); format: functional
[11] = biological target: T7, Muscarinic acetylcholine receptor M5 (Homo sapiens, UniProt P08912); experiment: potentiation of ACh response at human M5 – cell-based, concentration-response curve, dose response (AID 651878); format: functional
T7 sequence (P08912 whole entry): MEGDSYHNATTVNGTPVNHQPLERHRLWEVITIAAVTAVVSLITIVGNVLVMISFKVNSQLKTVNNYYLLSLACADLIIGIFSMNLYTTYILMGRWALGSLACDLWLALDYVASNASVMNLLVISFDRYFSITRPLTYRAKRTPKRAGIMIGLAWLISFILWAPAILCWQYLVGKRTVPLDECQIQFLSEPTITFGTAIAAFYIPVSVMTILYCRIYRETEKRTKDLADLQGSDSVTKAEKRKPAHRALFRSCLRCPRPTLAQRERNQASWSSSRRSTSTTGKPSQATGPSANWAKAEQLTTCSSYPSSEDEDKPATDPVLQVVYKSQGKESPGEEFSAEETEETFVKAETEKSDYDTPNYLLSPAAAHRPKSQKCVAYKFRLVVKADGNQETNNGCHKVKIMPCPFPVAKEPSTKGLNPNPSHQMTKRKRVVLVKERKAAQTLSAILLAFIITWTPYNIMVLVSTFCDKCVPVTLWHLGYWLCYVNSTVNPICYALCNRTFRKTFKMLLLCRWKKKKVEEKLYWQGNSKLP

[12] = biological target: Muscarinic acetylcholine receptor M5 (Rattus norvegicus, UniProt P08911); experiment: Discovery of Selective Novel Positive Allosteric Modulators (PAM) of the Muscarinic Receptor (M5) in CHO cells expressing Rattus Norvegicus M5 receptor.; format: functional, cell-based
Sequence of Muscarinic acetylcholine receptor M5 (Rattus norvegicus, UniProt P08911) (P08911 whole entry): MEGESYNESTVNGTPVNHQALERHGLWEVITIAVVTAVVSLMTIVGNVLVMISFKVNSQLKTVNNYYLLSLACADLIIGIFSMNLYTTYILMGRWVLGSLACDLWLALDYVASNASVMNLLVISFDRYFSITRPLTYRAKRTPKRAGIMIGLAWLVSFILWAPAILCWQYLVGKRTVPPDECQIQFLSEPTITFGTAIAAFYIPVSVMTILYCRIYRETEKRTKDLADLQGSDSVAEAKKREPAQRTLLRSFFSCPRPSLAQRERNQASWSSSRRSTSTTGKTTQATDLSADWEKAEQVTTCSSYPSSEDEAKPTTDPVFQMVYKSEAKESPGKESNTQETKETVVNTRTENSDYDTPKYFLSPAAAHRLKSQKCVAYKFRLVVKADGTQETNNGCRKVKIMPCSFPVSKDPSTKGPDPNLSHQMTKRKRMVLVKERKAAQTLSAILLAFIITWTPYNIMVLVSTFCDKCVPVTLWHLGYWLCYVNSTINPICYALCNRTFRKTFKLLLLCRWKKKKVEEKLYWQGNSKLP

[13] = biological target: T7, Muscarinic acetylcholine receptor M5; experiment: agonist curve shift by M5 PAMs – cell-based, calcium fluorescence, mechanism study (AID 651776); format: functional
[14] = Luminescence Cell-Based Dose Response HTS to Identify Inhibitors of 5'UTR Stem-Loop Driven Prion Protein mRNA Translation in H4 Neuroglioblastoma Cells. [Related pubchem assays: 1827 (Project Summary), 1813 (Primary HTS)]; format: functional
[15] = luciferase reporter signal suppression in cells – H4 neuroglioma cells, luminescence, dose response (AID 1990); format: functional, cell-based
[16] = alpha-synuclein stem-loop luciferase translation blockers – H4 neuroglioma cells, luminescence, confirmation (AID 1988); format: functional, cell-based
[17] = biological target: RNA-editing ligase 1, mitochondrial (Trypanosoma brucei brucei, UniProt P86926); experiment: inhibition of trypanosome RNA editing ligase – biochemical, fluorescence, Trypanosoma brucei, dose response (AID 1117295); format: functional
Sequence of RNA-editing ligase 1, mitochondrial (P86926 whole entry, the tested form may be a part): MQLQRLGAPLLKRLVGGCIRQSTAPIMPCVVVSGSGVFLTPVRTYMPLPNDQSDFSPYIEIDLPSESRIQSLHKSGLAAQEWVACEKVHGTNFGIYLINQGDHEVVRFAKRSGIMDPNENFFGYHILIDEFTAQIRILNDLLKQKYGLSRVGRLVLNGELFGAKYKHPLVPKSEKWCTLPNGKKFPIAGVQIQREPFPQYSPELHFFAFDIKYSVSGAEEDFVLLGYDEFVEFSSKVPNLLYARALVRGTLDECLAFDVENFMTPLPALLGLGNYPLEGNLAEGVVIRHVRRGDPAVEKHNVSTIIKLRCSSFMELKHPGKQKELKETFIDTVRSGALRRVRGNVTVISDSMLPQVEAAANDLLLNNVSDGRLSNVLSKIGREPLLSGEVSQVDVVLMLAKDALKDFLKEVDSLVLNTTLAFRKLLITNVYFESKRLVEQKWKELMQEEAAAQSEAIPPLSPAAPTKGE

[18] = biological target: T8, Oxysterols receptor LXR-beta (Homo sapiens, UniProt P55055); experiment: LXR agonists, Gal4 luciferase reporter, dose response, counter-screen for ssDAF-12 agonist project, cell-based, luminescence, HEK293, S. stercoralis campaign (AID 720737); format: functional; settings: read-out: IC50 (the source's name)
T8 sequence (P55055 whole entry): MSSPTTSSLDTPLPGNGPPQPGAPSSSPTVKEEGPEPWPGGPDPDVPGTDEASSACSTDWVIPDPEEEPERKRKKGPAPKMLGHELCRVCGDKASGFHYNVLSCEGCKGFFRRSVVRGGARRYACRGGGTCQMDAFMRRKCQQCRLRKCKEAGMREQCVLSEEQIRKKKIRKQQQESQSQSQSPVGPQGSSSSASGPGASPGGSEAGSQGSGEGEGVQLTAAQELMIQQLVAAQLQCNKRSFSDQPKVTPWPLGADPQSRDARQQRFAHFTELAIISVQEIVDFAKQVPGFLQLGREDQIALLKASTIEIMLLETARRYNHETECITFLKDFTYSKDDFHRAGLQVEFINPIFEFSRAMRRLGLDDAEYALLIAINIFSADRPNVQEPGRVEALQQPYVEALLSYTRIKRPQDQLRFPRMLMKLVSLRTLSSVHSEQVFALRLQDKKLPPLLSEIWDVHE

[19] = Luminescence-based cell-based high throughput dose response assay to identify activators of the DAF-12 from the parasite S. stercoralis (ssDAF-12).; format: functional
[20] = cells
[21] = biological target: T8, Oxysterols receptor LXR-beta; format: functional, cell-based
[22] = ATP-based viability loss in HEK293T cells – cell-based, CellTiter-Glo luminescence, dry powder, set 2, cytotoxicity control, dose response (AID 720595); format: functional; settings: HEK293
[23] = biological target: Nonstructural protein 1 (Influenza A virus, UniProt Q194T2); format: functional, Influenza A virus (A/California/07/2009(H1N1))
Sequence of Nonstructural protein 1 (Q194T2 whole entry): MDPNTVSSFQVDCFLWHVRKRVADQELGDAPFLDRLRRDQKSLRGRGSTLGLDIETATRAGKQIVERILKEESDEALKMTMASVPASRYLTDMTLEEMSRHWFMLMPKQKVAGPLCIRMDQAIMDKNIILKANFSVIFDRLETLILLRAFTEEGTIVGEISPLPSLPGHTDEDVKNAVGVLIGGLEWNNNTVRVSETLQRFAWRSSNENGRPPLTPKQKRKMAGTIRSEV

[24] = biological target: Phospholipase D1 (Homo sapiens, UniProt Q13393); experiment: PLD1 Cellular Concentration Response Study.; format: functional
Sequence of Phospholipase D1 (Q13393 whole entry): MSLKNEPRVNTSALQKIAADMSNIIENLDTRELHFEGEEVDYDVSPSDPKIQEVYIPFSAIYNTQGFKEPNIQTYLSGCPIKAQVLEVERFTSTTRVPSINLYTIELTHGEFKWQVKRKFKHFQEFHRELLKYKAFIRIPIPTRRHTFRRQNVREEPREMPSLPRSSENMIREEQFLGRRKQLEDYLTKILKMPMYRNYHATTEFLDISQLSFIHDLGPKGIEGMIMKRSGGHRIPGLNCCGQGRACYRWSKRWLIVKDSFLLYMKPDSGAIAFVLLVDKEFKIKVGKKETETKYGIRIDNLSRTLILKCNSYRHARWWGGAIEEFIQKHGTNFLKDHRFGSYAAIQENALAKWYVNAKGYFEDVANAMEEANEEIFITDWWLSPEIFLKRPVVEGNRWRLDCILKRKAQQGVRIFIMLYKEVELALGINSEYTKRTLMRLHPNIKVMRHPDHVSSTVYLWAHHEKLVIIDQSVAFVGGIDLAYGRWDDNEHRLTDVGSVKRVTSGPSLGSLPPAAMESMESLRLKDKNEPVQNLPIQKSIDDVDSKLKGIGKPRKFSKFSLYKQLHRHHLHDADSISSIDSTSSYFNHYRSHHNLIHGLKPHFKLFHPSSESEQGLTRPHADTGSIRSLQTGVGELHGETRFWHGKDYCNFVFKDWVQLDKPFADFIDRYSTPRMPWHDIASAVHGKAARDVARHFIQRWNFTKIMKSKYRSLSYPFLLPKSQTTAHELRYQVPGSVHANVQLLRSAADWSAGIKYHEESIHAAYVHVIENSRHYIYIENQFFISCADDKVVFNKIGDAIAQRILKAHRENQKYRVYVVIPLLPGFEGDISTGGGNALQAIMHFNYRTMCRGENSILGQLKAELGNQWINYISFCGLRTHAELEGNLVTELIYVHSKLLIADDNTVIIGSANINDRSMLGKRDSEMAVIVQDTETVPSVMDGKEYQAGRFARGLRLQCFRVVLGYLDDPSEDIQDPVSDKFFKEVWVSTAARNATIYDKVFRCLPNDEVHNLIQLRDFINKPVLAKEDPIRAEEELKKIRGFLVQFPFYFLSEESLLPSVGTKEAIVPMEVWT

[25] = biological target: Phospholipase D2 (Homo sapiens, UniProt O14939); experiment: PLD2 Cellular Concentration Response Study.; format: functional
Sequence of Phospholipase D2 (O14939 whole entry): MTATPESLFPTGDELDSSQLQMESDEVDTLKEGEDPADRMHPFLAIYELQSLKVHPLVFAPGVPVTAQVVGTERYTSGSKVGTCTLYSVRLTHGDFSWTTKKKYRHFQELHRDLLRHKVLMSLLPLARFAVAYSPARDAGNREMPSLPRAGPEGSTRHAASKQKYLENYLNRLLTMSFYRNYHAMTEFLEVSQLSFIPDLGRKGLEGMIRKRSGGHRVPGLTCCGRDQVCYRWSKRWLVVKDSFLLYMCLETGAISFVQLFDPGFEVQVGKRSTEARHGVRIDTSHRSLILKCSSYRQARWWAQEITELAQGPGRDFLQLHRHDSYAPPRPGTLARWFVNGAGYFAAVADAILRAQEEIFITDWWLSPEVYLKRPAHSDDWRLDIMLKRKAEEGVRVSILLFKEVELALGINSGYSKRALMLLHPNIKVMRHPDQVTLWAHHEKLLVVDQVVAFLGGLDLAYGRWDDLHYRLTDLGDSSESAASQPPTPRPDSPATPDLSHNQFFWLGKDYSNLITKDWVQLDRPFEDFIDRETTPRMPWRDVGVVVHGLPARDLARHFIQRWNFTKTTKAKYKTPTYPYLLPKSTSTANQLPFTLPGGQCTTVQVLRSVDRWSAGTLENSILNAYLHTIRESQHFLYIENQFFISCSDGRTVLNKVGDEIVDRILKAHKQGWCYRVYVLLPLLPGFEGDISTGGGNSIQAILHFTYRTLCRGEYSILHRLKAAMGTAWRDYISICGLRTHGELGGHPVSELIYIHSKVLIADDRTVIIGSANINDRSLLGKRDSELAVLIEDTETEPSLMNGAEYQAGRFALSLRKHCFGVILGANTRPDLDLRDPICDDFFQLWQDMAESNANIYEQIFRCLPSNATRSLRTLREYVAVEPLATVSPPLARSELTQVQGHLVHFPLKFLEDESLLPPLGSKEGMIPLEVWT

[26] = Dd2 parasite growth inhibition in erythrocytes – SYBR Green, dry powder samples, set 9, dose response (AID 1159568); format: functional, cell-based

COc1cc(NC(=O)COC(=O)c2ccc([N+](=O)[O-])s2)cc(OC)c1OC
EC50 [1]: 63.6 µM (inactive) | AC50 [2]: 2.44 µM (active) | AC50 [3]: 20.4 µM (active) | IC50 [4]: 3.88 µM (active) | IC50 [5]: 48.3 µM (inactive) | IC50 [6]: 8.45 µM (active) | AC50 [7]: 21.5 µM (active) | IC50 [8]: 5.51 µM (active) | IC50 [9]: 3.82 µM (active)

COc1ccc(SCC(=O)c2cc(C)n(-c3ccc(OC(F)F)cc3)c2C)cc1
EC50 [10]: 3.16 µM (active)

O=C1C(=O)N(CCOc2ccccc2)c2ccc(OC(F)(F)F)cc21
EC50 [11]: 0.55 µM | EC50 [12]: 0.466 µM | EC50 [13]: 51.6 µM (active)

O=c1cc(CN2CCc3ccccc32)nc2sccn12
EC50 [14]: 0.231 µM (active) | EC50 [15]: 18.2 µM (active) | EC50 [16]: 10.9 µM (active) | IC50 [17]: 22.9 µM (inactive)

O=C(Nc1nc2ccccc2[nH]1)Nc1ccccc1F
EC50 [18]: > 67.5 µM (inactive) | IC50 [19]: > 67.5 µM (inactive) | EC50 [20]: > 67.5 µM (inactive) | EC50 [21]: > 67.5 µM (inactive) | IC50 [4]: 14.5 µM (active) | IC50 [6]: 18.5 µM (active) | IC50 [8]: 7.28 µM (active) | IC50 [9]: 10.6 µM (active)

COC(=O)Cc1cc(O)n(-c2nc3ccccc3[nH]2)n1
AC50 [22]: 30.4 µM (active) | IC50 [23]: 12.5 µM (active)

O=C(NCCN1CCC2(CC1)C(=O)NCN2Cc1ccccn1)c1ccc2ccccc2c1
IC50 [24]: 2.63 µM (active) | IC50 [25]: 0.08 µM (active)

CC(C)NC(=O)NCC[C@@H]1CC[C@H](NS(=O)(=O)c2ccc(Oc3ccccc3)cc2)[C@@H](CO)O1
AC50 [26]: 32.1 µM (active)
